Laboratory results as given in US20140079836A1, “METHODS AND COMPOSITIONS FOR ALTERING HEALTH, WELLBEING, AND LIFESPAN” (LifeSpan Extension, LLC, priority 2008, published 2014).

Tested on: entire human genome (gene expression profile)
Experiment: Agilent whole human genome array, skin fibroblasts AG07999, antioxidant with or without UV
Assay type: cell-based
Description: Cell cultures: A human skin fibroblast cell culture was obtained through the Coriell Cell Repository from the National Institute on Aging Cell Repository. […] Culture media: Cells were grown in Minimal Essential Medium supplemented with 10% fetal bovine serum, 2 mM L-glutamine, 2 mM Glutamax I. […] All cultures were incubated at 37° C. with 5% CO2 in a humidified chamber. […] On Day 5 after 24 hours of exposure to test conditions, the cells were isolated and the RNA isolated using the RT^2q PCR-grade RNA isolation kit (Superarray Bioscience Corporation). […] Analysis of Agilent Whole Human Genome Arrays: RNA taken from both samples was sent to Cogenics, Inc. Morrisville, N.C. Cogenics, Inc. is a leading, state-of-the-art, microarray service provider that facilitates and accelerates transcriptome profiling and gene discovery processes for industrial and academic researchers. Cogenics' procedure for processing samples is as follows: RNA samples are received and analyzed by Cogenics, Inc. using rigorous standardized procedures that are designed to ensure quality and chain of custody. Each sample undergoes a thorough quality analysis using an Agilent Bioanalyzer microfluidics device, and is precisely quantified using a Nanodrop-1000 spectro-photometer. When the Agilent Oligonucleotide Microarray Platform is utilized, samples are fluorescently labeled using the Agilent Low-Input Linear Amplification Kit. Upon completion of this process, the labeled cRNA products are assessed using the same processes described above. These labeled samples are then fragmented and hybridized to oligonucleotide microarrays. The microarrays are washed and then scanned using an Agilent DNA Microarray Scanner with Sure Scan technology. Data is extracted from the images produced by the scanner using Agilent's Feature Extraction software. At this point, the scanned image is visually inspected for defects, and the extracted data is statistically analyzed to ensure quality of the assay. Extracted data and images can be loaded into Rosetta Resolver Gene Expression Data Analysis System for in-depth analysis, both from a quality standpoint, as well as to develop biological understanding. […] A table was generated and provided as a tab-delimited text file. This file will contain the log ratio, fold-change, log ratio p-value, etc. for every transcript measured by the microarray. Using Rosetta Resolver, a single ratio comparison was compiled based on the results of the two fluorophore reversal hybridization performed in the context of this project. The ratios were calculated such that the Tx sample was in the numerator and the UnTx sample was in the denominator. A table was generated, saved as tab-delimited text files, and is provided on the DVD that accompanied this report in the “Objective—1” subdirectory or the “Data_Analysis” directory. These files contain the log ratio, fold-change, log ratio p-value, etc. for every transcript present on the microarray. […] A table for will be generated and provided as a tab-delimited text file. The file will contain the log ratio, fold-change, log ratio p-value, etc. for only the differentially expressed transcripts within the context of the comparison. […] These criteria were applied to the comparison made in Objective 1. A table was generated, saved as tab-delimited text files, and is provided on the DVD that accompanied this report in the “Objective—1” subdirectory or the “Data_Analysis” directory. […] Cell cultures: A human skin fibroblast cell culture (or cultures) will be obtained through the Coriell Cell Repository from the National Institute on Aging Cell Repository. […] Culture media: Cells will be grown in Minimal Essential Medium supplemented with 10% fetal bovine serum, 2 mM L-glutamine, 2 mM Glutamax I.

COC1=C(OC)C(=O)C(CCCCCCCCCCO)=C(C)C1=O [Idebenone, 6-(10-hydroxydecyl)-2,3-dimethoxy-5-methyl-1,4-benzoquin-one]
1.0: TPO Expression (Idebenone + UVB) | AKT1 Expression (Idebenone Alone) | APOE Expression (Idebenone Alone) | ARG2 Expression (Idebenone Alone) | CCNA1 Expression (Idebenone Alone) | CYBA Expression (Idebenone Alone) | DLG4 Expression (Idebenone Alone) | DNCL1 Expression (Idebenone Alone) | DND1 Expression (Idebenone Alone) | DUOX1 Expression (Idebenone Alone) | GCH1 Expression (Idebenone Alone) | GCHFR Expression (Idebenone Alone) | GPX1 Expression (Idebenone Alone) | GPX2 Expression (Idebenone Alone) | GPX3 Expression (Idebenone Alone) | GPX5 Expression (Idebenone Alone) | GRIN2D Expression (Idebenone Alone) | HSP90AB1 Expression (Idebenone Alone) | JUN Expression (Idebenone Alone) | MBL2 Expression (Idebenone Alone) | MPO Expression (Idebenone Alone) | MSRA Expression (Idebenone Alone) | MYB Expression (Idebenone Alone) | NME5 Expression (Idebenone Alone) | NOS2A Expression (Idebenone Alone) | NOS3 Expression (Idebenone Alone) | NOSIP Expression (Idebenone Alone) | NOX5 Expression (Idebenone Alone) | OXR1 Expression (Idebenone Alone) | PNKP Expression (Idebenone Alone) | PP3CA Expression (Idebenone Alone) | PREX1 Expression (Idebenone Alone) | PRG3 Expression (Idebenone Alone) | PRKCA Expression (Idebenone Alone) | SELS Expression (Idebenone Alone) | TPO Expression (Idebenone Alone) | TTN Expression (Idebenone Alone) | UNR Expression (Idebenone Alone) | TPP1 Expression (Human Genome Expression Values) (agent + UVB) | TRF2 Expression (Human Genome Expression Values) (agent Alone)
1.1: TFAM Expression (Idebenone + UVB) | DDAH2 Expression (Idebenone Alone) | GLRX2 Expression (Idebenone Alone) | IL10 Expression (Idebenone Alone) | KRT1 Expression (Idebenone Alone) | LPO Expression (Idebenone Alone) | NCF2 Expression (Idebenone Alone) | NOSTRIN Expression (Idebenone Alone) | PKAR1B Expression (Idebenone Alone) | SCARA3 Expression (Idebenone Alone) | TIN2 Expression (Human Genome Expression Values) (agent + UVB) | TNKS2 Expression (Human Genome Expression Values) (agent + UVB) | TERT Expression (Human Genome Expression Values) (agent Alone) | TIN2 Expression (Human Genome Expression Values) (agent Alone) | TNKS Expression (Human Genome Expression Values) (agent Alone)
−1.7: NCF1 Expression (Idebenone Alone) | VEGFA Expression (Idebenone Alone)
1.2: CAT Expression (Idebenone Alone) | CYGB Expression (Idebenone Alone) | RNF7 Expression (Idebenone Alone) | SEPP1 Expression (Idebenone Alone) | SGK2 Expression (Idebenone Alone) | POT1 Expression (Human Genome Expression Values) (agent + UVB)
−1.3: VEGFA Expression (Idebenone + UVB) | GPX4 Expression (Idebenone Alone) | NQO1 Expression (Idebenone Alone) | PRDX2 Expression (Idebenone Alone) | SOD3 Expression (Idebenone Alone) | TXNRD2 Expression (Idebenone Alone) | TERT Expression (Human Genome Expression Values) (agent + UVB)
−1.1: TROAP Expression (Idebenone + UVB) | ALOX12 Expression (Idebenone Alone) | CAMK1 Expression (Idebenone Alone) | DUOX2 Expression (Idebenone Alone) | GSS Expression (Idebenone Alone) | MT3 Expression (Idebenone Alone) | PRDX6 Expression (Idebenone Alone) | RAP1 Expression (Human Genome Expression Values) (agent + UVB) | TRF2 Expression (Human Genome Expression Values) (agent + UVB) | RAP1 Expression (Human Genome Expression Values) (agent Alone) | TPP1 Expression (Human Genome Expression Values) (agent Alone)
1.5: MTL5 Expression (Idebenone Alone) | SRXN1 Expression (Idebenone Alone)
1.8: EGFR Expression (Idebenone Alone)
1.3: TTN Expression (Idebenone + UVB) | GPR156 Expression (Idebenone Alone) | NUDT1 Expression (Idebenone Alone) | TNKS Expression (Human Genome Expression Values) (agent + UVB) | TRF1 Expression (Human Genome Expression Values) (agent + UVB)
−1.4: DUSP1 Expression (Idebenone Alone)
1.9: NOS1 Expression (Idebenone Alone)
−1.0: ATOX1 Expression (Idebenone Alone) | CCS Expression (Idebenone Alone) | FOXM1 Expression (Idebenone Alone) | INS Expression (Idebenone Alone) | NRF1 Expression (Idebenone Alone) | PRNP Expression (Idebenone Alone) | SIRT2 Expression (Idebenone Alone) | SOD1 Expression (Idebenone Alone) | TROAP Expression (Idebenone Alone) | POT1 Expression (Human Genome Expression Values) (agent Alone) | TNKS2 Expression (Human Genome Expression Values) (agent Alone) | TRF1 Expression (Human Genome Expression Values) (agent Alone)
1.4: UNR Expression (Idebenone + UVB) | CDKN1A Expression (Idebenone Alone) | SCRT2 Expression (Idebenone Alone)
−1.2: GLA Expression (Idebenone Alone) | IL8 Expression (Idebenone Alone) | PGC Expression (Idebenone Alone) | SOD2 Expression (Idebenone Alone) | TFAM Expression (Idebenone Alone)
−1.6: TXNRD2 Expression (Idebenone + UVB) | EPX Expression (Idebenone Alone)
